Each structure is given as a SMILES string.

A short description of the data set: physchem. The following applies: octanol/buffer.
Usually logP stands for a log measure of how a compound divides between an organic and an aqueous phase. Low readings indicate lower lipophilicity, high ones higher lipophilicity. The molecule `COCCCc1cc(CN(C(=O)[C@H]2CNCC(=O)N2c2cnc(OCCCOCc3ccccc3OC)nc2)C2CC2)c(Cl)cn1` gave a logP of 2.43. The figure for `COCCCc1cc(CN(C(=O)[C@H]2CNCC(=O)N2c2ccc(CCCOc3cccc(Cl)c3)cc2)C2CC2)c(Cl)cn1` is 5.29; for `COCCCc1cc(CN(C(=O)[C@H]2CNCC(=O)N2c2ccc(CCCOc3c(F)ccc(F)c3F)cc2)C2CC2)c(Cl)cn1` it is 5.11. The figure for `COCCCc1cc(CN(C(=O)[C@H]2CNCC(=O)N2c2ccc(OCCOc3c(Cl)cc(C)cc3Cl)cc2)C2CC2)c(Cl)c[n+]1[O-]` is 5.43.

`COCCCc1cc(CN(C(=O)[C@H]2CNCC(=O)N2c2ccc(OCCOc3c(Cl)cc(C)cc3Cl)nc2)C2CC2)c(Cl)c[n+]1[O-]` yielded a logP of 4.61. Under `COCCCc1cc(CN(C(=O)[C@H]2CNCC(=O)N2c2ccc(COC(=O)c3ccccc3)cc2)C2CC2)c(Cl)c[n+]1[O-]` stands 4.33; under `COCCCc1cc(CN(C(=O)[C@H]2CNCC(=O)N2c2ccc(OCCCOCc3ccccc3)cc2)C2CC2)c(Cl)c[n+]1[O-]`, 4.71; under `COCCCc1cc(CN(C(=O)[C@H]2CNCC(=O)N2c2ccc(OCCCOCc3ccccc3OC)cc2)C2CC2)c(Cl)c[n+]1[O-]`, 4.66. Under `COCCCc1cc(CN(C(=O)[C@H]2CNCC(=O)N2c2cnc(OCCCOCc3ccccc3OC)nc2)C2CC2)c(Cl)c[n+]1[O-]` stands 2.65.

For the molecule `COCCCc1cc(CN(C(=O)[C@H]2CNCC(=O)N2c2ccc(CCCOc3cccc(Cl)c3)cc2)C2CC2)c(Cl)c[n+]1[O-]`, the logP came out at 5.51.

Molecule `COCCCc1cc(CN(C(=O)[C@H]2CNCC(=O)N2c2ccc(CCCOc3c(F)ccc(F)c3F)cc2)C2CC2)c(Cl)c[n+]1[O-]` gave a lipophilicity (logP) of 5.33.

As to `CNCCc1ccc(Cl)c(CN(C(=O)[C@H]2CNCC(=O)N2c2ccc(OCCOc3c(Cl)cc(C)cc3Cl)cc2)C2CC2)c1`, the log partition coefficient (logP) was found to be 5.74. `CNCCc1ccc(Cl)c(CN(C(=O)[C@H]2CNCC(=O)N2c2ccc(OCCOc3c(Cl)cc(C)cc3Cl)nc2)C2CC2)c1` came in with a logP of 4.91. Under `CNC(=O)OCCc1ccc(Cl)c(CN(C(=O)[C@H]2CNCC(=O)N2c2ccc(OCCCOCc3ccccc3)cc2)C2CC2)c1` stands 4.94.

As to `CNC(=O)OCCc1ccc(Cl)c(CN(C(=O)[C@H]2CNCC(=O)N2c2ccc(OCCCOCc3ccccc3OC)cc2)C2CC2)c1`, the log partition coefficient (logP) was determined as 4.9.

`CNC(=O)OCCc1ccc(Cl)c(CN(C(=O)[C@H]2CNCC(=O)N2c2cnc(OCCCOCc3ccccc3OC)nc2)C2CC2)c1` registered a logP of 2.88. Consider `CNC(=O)OCCc1ccc(Cl)c(CN(C(=O)[C@H]2CNCC(=O)N2c2ccc(CCCOc3cccc(Cl)c3)cc2)C2CC2)c1`, for which the logP amounted to 5.74.

`CNC(=O)OCCc1ccc(Cl)c(CN(C(=O)[C@H]2CNCC(=O)N2c2ccc(CCCOc3c(F)ccc(F)c3F)cc2)C2CC2)c1` had a logP of 5.56.

Regarding `COC(=O)NCc1ccc(Cl)c(CN(C(=O)[C@H]2CNCC(=O)N2c2ccc(OCCOc3c(Cl)cc(C)cc3Cl)cc2)C2CC2)c1`, the logP is 5.58. Under `COC(=O)NCc1ccc(Cl)c(CN(C(=O)[C@H]2CNCC(=O)N2c2ccc(OCCOc3c(Cl)cc(C)cc3Cl)nc2)C2CC2)c1` stands 4.75. Consider `CNCCc1ccc(Cl)c(CN(C(=O)[C@H]2CNCC(=O)N2c2ccc(COC(=O)c3ccccc3)cc2)C2CC2)c1`, for which the lipophilicity (logP) was found to be 4.64. The figure for `CNCCc1ccc(Cl)c(CN(C(=O)[C@H]2CNCC(=O)N2c2ccc(OCCCOCc3ccccc3)cc2)C2CC2)c1` is 5.01; for `CNCCc1ccc(Cl)c(CN(C(=O)[C@H]2CNCC(=O)N2c2ccc(OCCCOCc3ccccc3OC)cc2)C2CC2)c1` it is 4.97; for `CNCCc1ccc(Cl)c(CN(C(=O)[C@H]2CNCC(=O)N2c2cnc(OCCCOCc3ccccc3OC)nc2)C2CC2)c1` it is 2.95.

In turn, `CNCCc1ccc(Cl)c(CN(C(=O)[C@H]2CNCC(=O)N2c2ccc(CCCOc3cccc(Cl)c3)cc2)C2CC2)c1` gave a logP of 5.81. Under `CNCCc1ccc(Cl)c(CN(C(=O)[C@H]2CNCC(=O)N2c2ccc(CCCOc3c(F)ccc(F)c3F)cc2)C2CC2)c1` stands 5.63. Under `COC(=O)NCc1ccc(Cl)c(CN(C(=O)[C@H]2CNCC(=O)N2c2ccc(COC(=O)c3ccccc3)cc2)C2CC2)c1` stands 4.48; under `COC(=O)NCc1ccc(Cl)c(CN(C(=O)[C@H]2CNCC(=O)N2c2ccc(OCCCOCc3ccccc3)cc2)C2CC2)c1`, 4.85. Under `COC(=O)NCc1ccc(Cl)c(CN(C(=O)[C@H]2CNCC(=O)N2c2ccc(OCCCOCc3ccccc3OC)cc2)C2CC2)c1` stands 4.81.

Turning to `COC(=O)NCc1ccc(Cl)c(CN(C(=O)[C@H]2CNCC(=O)N2c2cnc(OCCCOCc3ccccc3OC)nc2)C2CC2)c1`, the logP was 2.8.

In the case of `COC(=O)NCc1ccc(Cl)c(CN(C(=O)[C@H]2CNCC(=O)N2c2ccc(CCCOc3cccc(Cl)c3)cc2)C2CC2)c1`, the logP was 5.65. Under `COC(=O)NCc1ccc(Cl)c(CN(C(=O)[C@H]2CNCC(=O)N2c2ccc(CCCOc3c(F)ccc(F)c3F)cc2)C2CC2)c1` stands 5.48; under `COCCCc1ccc(Cl)c(CN(C(=O)[C@H]2CNCC(=O)N2c2ccc(OCCOc3c(Cl)cc(C)cc3Cl)cc2)C2CC2)c1`, 6.49; under `COCCCc1ccc(Cl)c(CN(C(=O)[C@H]2CNCC(=O)N2c2ccc(OCCOc3c(Cl)cc(C)cc3Cl)nc2)C2CC2)c1`, 5.66. `COCCCc1ccc(Cl)c(CN(C(=O)[C@H]2CNCC(=O)N2c2ccc(COC(=O)c3ccccc3)cc2)C2CC2)c1`: the logP is 5.39.

Regarding `COCCCc1ccc(Cl)c(CN(C(=O)[C@H]2CNCC(=O)N2c2ccc(OCCCOCc3ccccc3)cc2)C2CC2)c1`, the logP came to 5.76.

`COCCCc1ccc(Cl)c(CN(C(=O)[C@H]2CNCC(=O)N2c2ccc(OCCCOCc3ccccc3OC)cc2)C2CC2)c1`: the lipophilicity (logP) was determined as 5.72. Molecule `COCCCc1ccc(Cl)c(CN(C(=O)[C@H]2CNCC(=O)N2c2cnc(OCCCOCc3ccccc3OC)nc2)C2CC2)c1` came in with a logP of 3.7.

`COCCCc1ccc(Cl)c(CN(C(=O)[C@H]2CNCC(=O)N2c2ccc(CCCOc3cccc(Cl)c3)cc2)C2CC2)c1` yielded a logP of 6.56. The figure for `COCCCc1ccc(Cl)c(CN(C(=O)[C@H]2CNCC(=O)N2c2ccc(CCCOc3c(F)ccc(F)c3F)cc2)C2CC2)c1` is 6.39; for `Cc1cc(Cl)c(OCCOc2ccc(N3C(=O)CNC[C@@H]3C(=O)N(Cc3cc(CNC(=O)CC(F)(F)F)ccc3Cl)C3CC3)cc2)c(Cl)c1` it is 6.02. Under `Cc1cc(Cl)c(OCCOc2ccc(N3C(=O)CNC[C@@H]3C(=O)N(Cc3cc(CNC(=O)CC(F)(F)F)ccc3Cl)C3CC3)cn2)c(Cl)c1` stands 5.19.

`O=C(CC(F)(F)F)NCc1ccc(Cl)c(CN(C(=O)[C@H]2CNCC(=O)N2c2ccc(COC(=O)c3ccccc3)cc2)C2CC2)c1` gave a logP of 4.92. Under `O=C(CC(F)(F)F)NCc1ccc(Cl)c(CN(C(=O)[C@H]2CNCC(=O)N2c2ccc(OCCCOCc3ccccc3)cc2)C2CC2)c1` stands 5.29; under `Cc1cc(Cl)c(OCCOc2ccc(N3C(=O)CNC[C@@H]3C(=O)N(Cc3cc(CCNC4CC4)ccc3Cl)C3CC3)cc2)c(Cl)c1`, 6.39.

As for `Cc1cc(Cl)c(OCCOc2ccc(N3C(=O)CNC[C@@H]3C(=O)N(Cc3cc(CCNC4CC4)ccc3Cl)C3CC3)cn2)c(Cl)c1`, the logP was found to be 5.56. Under `O=C(OCc1ccc(N2C(=O)CNC[C@@H]2C(=O)N(Cc2cc(CCNC3CC3)ccc2Cl)C2CC2)cc1)c1ccccc1` stands 5.29; under `O=C([C@H]1CNCC(=O)N1c1ccc(OCCCOCc2ccccc2)cc1)N(Cc1cc(CCNC2CC2)ccc1Cl)C1CC1`, 5.66. Under `COc1ccccc1COCCCOc1ccc(N2C(=O)CNC[C@@H]2C(=O)N(Cc2cc(CCNC3CC3)ccc2Cl)C2CC2)cc1` stands 5.62; under `COc1ccccc1COCCCOc1ncc(N2C(=O)CNC[C@@H]2C(=O)N(Cc2cc(CCNC3CC3)ccc2Cl)C2CC2)cn1`, 3.61. The figure for `O=C([C@H]1CNCC(=O)N1c1ccc(CCCOc2cccc(Cl)c2)cc1)N(Cc1cc(CCNC2CC2)ccc1Cl)C1CC1` is 6.46. `O=C([C@H]1CNCC(=O)N1c1ccc(CCCOc2c(F)ccc(F)c2F)cc1)N(Cc1cc(CCNC2CC2)ccc1Cl)C1CC1` registered a logP of 6.29. The figure for `COc1ccccc1COCCCOc1ccc(N2C(=O)CNC[C@@H]2C(=O)N(Cc2cc(CNC(=O)CC(F)(F)F)ccc2Cl)C2CC2)cc1` is 5.25; for `COc1ccccc1COCCCOc1ncc(N2C(=O)CNC[C@@H]2C(=O)N(Cc2cc(CNC(=O)CC(F)(F)F)ccc2Cl)C2CC2)cn1` it is 3.23. Under `O=C(CC(F)(F)F)NCc1ccc(Cl)c(CN(C(=O)[C@H]2CNCC(=O)N2c2ccc(CCCOc3cccc(Cl)c3)cc2)C2CC2)c1` stands 6.09.

Molecule `O=C(CC(F)(F)F)NCc1ccc(Cl)c(CN(C(=O)[C@H]2CNCC(=O)N2c2ccc(CCCOc3c(F)ccc(F)c3F)cc2)C2CC2)c1` came in with a logP of 5.91.

In the case of `COCCCc1cc(CN(C(=O)[C@H]2CNCC(=O)N2c2ccc(OCCOc3c(Cl)cc(C)cc3Cl)cc2)C2CC2)c(Cl)cn1`, the logP is 5.22. The figure for `COCCCc1cc(CN(C(=O)[C@H]2CNCC(=O)N2c2ccc(OCCOc3c(Cl)cc(C)cc3Cl)nc2)C2CC2)c(Cl)cn1` is 4.39; for `COCCCc1cc(CN(C(=O)[C@H]2CNCC(=O)N2c2ccc(COC(=O)c3ccccc3)cc2)C2CC2)c(Cl)cn1` it is 4.11; for `COCCCc1cc(CN(C(=O)[C@H]2CNCC(=O)N2c2ccc(OCCCOCc3ccccc3)cc2)C2CC2)c(Cl)cn1` it is 4.49. Under `COCCCc1cc(CN(C(=O)[C@H]2CNCC(=O)N2c2ccc(OCCCOCc3ccccc3OC)cc2)C2CC2)c(Cl)cn1` stands 4.44; under `Cc1cc(Cl)c(OCCOc2ccc(N3C(=O)CNC[C@@H]3C(=O)N(Cc3cc(CNC4CC4)ccc3Cl)C3CC3)cc2)c(Cl)c1`, 6.3. Under `Cc1cc(Cl)c(OCCOc2ccc(N3C(=O)CNC[C@@H]3C(=O)N(Cc3cc(CNC4CC4)ccc3Cl)C3CC3)cn2)c(Cl)c1` stands 5.48; under `O=C(OCc1ccc(N2C(=O)CNC[C@@H]2C(=O)N(Cc2cc(CNC3CC3)ccc2Cl)C2CC2)cc1)c1ccccc1`, 5.2; under `O=C([C@H]1CNCC(=O)N1c1ccc(OCCCOCc2ccccc2)cc1)N(Cc1cc(CNC2CC2)ccc1Cl)C1CC1`, 5.58.

Values taken from ChEMBL document CHEMBL1944551, “An integrated computational workflow for efficient and quantitative modeling of renin inhibitors” (Bioorg Med Chem, 2012).
